One data set concerns MRC-5. Nature of the data set: Liposomal uptake by normal and tumor cells. The format is cell-based. The note with it: normal cells MRC-5. On the procedure:
(§1) Thymidine uptake is a method of assessing cell viability of cultured cells, and decreased thymidine uptake occurs as a result of cytotoxicity caused by contact with toxic substances. , MRC-5 normal embryonic lung fibroblasts; , W1-38SV/40 transformed embryonic human lung fibroblasts; .quadrature..quadrature., SK-N-MC human glioblastoma cells and , N4TG1 mouse neuroblastoma cells.
(§2) Cells were treated with liposomes containing synthetic preparations of PI (left frames) or PC (right frames) containing palmitic acid in the sn-1 position and either [^14 C]linoleic acid in the sn-2 position (FIGS. 5 and 5a) or [^14 C]arachidonic acid in the sn-2 position (FIGS. 6 and 6a) or [^14 C]oleic acid in the sn-2 position (FIGS. 7 and 7a). The liposomes were comprised of the indicated phospholipids (PI or PC) and cholesterol in a molar ratio of 2:1.
(§3) The data in Table 5 was obtained concomitantly with the toxicity studies in FIGS. 5-7a.

In a further data set the test system is N4TG1. Nature of the data set: Liposomal uptake by normal and tumor cells. The conditions noted are these: tumor cells N4TG1. The format is cell-based, mouse. On the procedure:
as §1, §2, §3

For data set [1], the system named is N4TG1 neuroblastoma cells. Nature of the data set: Fate of liposomal PI after incubation with N4TG1 neuroblastoma cells. The format is in vitro ADME, mouse. From the text:
Lipids were dried and resuspended exactly as described previously in the Biochem. Biophys. Res. Commun. article. In the use of ([^14 C]linoleoyl)PI, ([^14 C]oleoyl)PI, or ([^14 C]arachidonoyl)PI the phospholipids were used in a 2:1 molar combination with cholesterol. Cholesterol was included in the liposomes in order to minimize the net transfer of cholesterol into or out of the cells. ([^3 H]myo-Inositol)PI was used as a tracer (1%) with bovine liver PI as the bulk phospholipid carrier for forming liposomes. [^3 H]Linoleic acid was used as a tracer (4%) in liposomes containing linoleic acid:PI (yeast or animal): cholesterol, 2:1. […]
In order to extract lipids, methanol and chloroform were added to cell homogenates to obtain a single phase of CHCl3 :CH3 OH:H2 O (1:2:1 8, v/v) containing 0.1M HCl, according to Bligh and Dyer in Can. […] The lipid compositions of the cell extracts were determined by thin layer chromatography on silica gel precoated sheets (E. M. Reagents; E. Merck, FRG) using the following solvent systems: (a) chloroform:methanol: acetic acid:water, 25:15:4:2 (v/v) (used for phospholipid separation): (b) 1-propanol:4.3M ammonia containing 10 mM EDTA, 65:35 (v/v) (used for PIP and PIP2 separations); and (c) chloroform:acetone, 1:1 (v/v) (used for DG and fatty acid separations). […]

Data set [2] deals with N4TG1 neuroblastoma cells. Nature of the data set: Thymidine uptake (cell viability) by N4TG1 neuroblastoma cells incubated with liposomes. The format is cell-based, mouse. On the procedure: Plant PI(S) is from the Sigma Chemical Company and plant PI(A) is from Avanti Polar Lipids, Inc. and ([^14 C]linoleoyl)PI is the synthetic PI.
FIGS. 3a and 3b show the effect of increasing the molar fraction of synthetic PI or animal PI in liposomes on (a) thymidine uptake (FIG. 3a) and myo-inositol uptake (FIG. 3b) by N4TG1 neuroblastoma cells, .circle. 100 μm PI, 200 μm PI, 300 μm PI. Cells were incubated with liposomes made up of the various combinations indicated (mol %) of ([^14 C]linoleoyl)PI and animal PI.
FIGS. 9a, b, c, and d show the effect of inhibitors on PI toxicity to tumor cells.
(§4) Lipids were dried and resuspended exactly as described previously in the Biochem. Biophys. Res. Commun. article. In the use of ([^14 C]linoleoyl)PI, ([^14 C]oleoyl)PI, or ([^14 C]arachidonoyl)PI the phospholipids were used in a 2:1 molar combination with cholesterol. Cholesterol was included in the liposomes in order to minimize the net transfer of cholesterol into or out of the cells. ([^3 H]myo-Inositol)PI was used as a tracer (1%) with bovine liver PI as the bulk phospholipid carrier for forming liposomes. [^3 H]Linoleic acid was used as a tracer (4%) in liposomes containing linoleic acid:PI (yeast or animal): cholesterol, 2:1. It was shown that it is not necessary to have cholesterol present to observe the cytotoxicity.
The N4TG1 mouse neuroblastoma cell line was obtained from Dr. Peter Chiang (Walter Reed Army Institute of Research) and cultured using Dulbecco's minimal essential medium (MEM: Grand Island Biological Co.) containing 10% fetal bovine serum. Cells were routinely started from frozen cultures every 6 weeks in order to assure that the cells used were from low passage cultures.
[methyl-^3 H]Thymidine (New England Nuclear) incorporation was carried out using 96-well plates (Costar). Thymidine incorporation was used as an assay for cell viability, since in the previous studies described in the Biochem. Biophys. Res. Commun. (1983) article, other methods of assessing cell viability, including microscopic evaluation in the presence of trypan blue, gave identical results. Fifty μl of cell suspension (4×10^5 cells/ml) were added to duplicate wells. Approximately 18 hours later 25 μl of the PI-containing liposomes were added to give a final concentration of phospholipid of 200 μM (approximately, 14 nmol/2-3×10^4 cells). At various intervals after PI addition [^3 H]thymidine, 1 μCi/well was added and incubated with the cells for 3 hours. Cells were collected on glass fiber filter mats by a mechanical cell harvester (Skatron, Inc.) using a combination of scraping and fluid turbulence (saline). Filters were dried and the material was solubilized by incubation overnight with NCS tissue solubilizer and counted in the presence of Spectrafluor (Amersham).
In FIGS. 1 and 2 the curves were quite reproducible and representative experiments are shown. Because of fluctuations (<5%) in control values, the data were "normalized" by comparison with daily controls and expressed as "percentage of control in absence of PI." Typical values for uptake of [^3 H]thymidine by controls are shown in the inserts in FIGS. 1 and 2.

For another data set, the system named is HT-144. Nature of the data set: Liposomal uptake by normal and tumor cells. The conditions noted are these: tumor cells HT-144. In kind it is cell-based, human. On the procedure: as §2, §3
The next data set relates to WI-38/SV-40. Nature of the data set: Liposomal uptake by normal and tumor cells. The format is cell-based, human. On the procedure:
as §1, §2, §3

A further data set deals with SK-N-MC. Nature of the data set: Liposomal uptake by normal and tumor cells. The note with it: tumor cells SK-N-MC. The format is cell-based, human. On the procedure:
as §1, §2, §3

Data set [3] relates to N4TG1 neuroblastoma cells. Nature of the data set: Effect on cells by linoleic acid in liposomes made of non-cytotoxic phospholipids (thymidine uptake). In kind it is cell-based, mouse.
Source text: as §4
The N4TG1 mouse neuroblastoma cell line was obtained from Dr. Peter Chiang (Walter Reed Army Institute of Research) and cultured using Dulbecco's minimal essential medium (MEM: Grand Island Biological Co.) containing 10% fetal bovine serum. […]
[methyl-^3 H]Thymidine (New England Nuclear) incorporation was carried out using 96-well plates (Costar). […] Filters were dried and the material was solubilized by incubation overnight with NCS tissue solubilizer and counted in the presence of Spectrafluor (Amersham). […]
Cellular uptake of linoleic acid was calculated based on uptake of tracer ^3 H-linoleic acid. […]

Data set [4] concerns N4TG1 neuroblastoma cells. Nature of the data set: Cellular uptake of linoleic acid from liposomes (tracer 3H-linoleic acid). The format is cell-based, mouse.
Source text: as §4
Cellular uptake of linoleic acid was calculated based on uptake of tracer ^3 H-linoleic acid. In Table 1 intracellularly generated free fatty acids occurred at a concentration of 2.2 nmol/8×10^5 cells. […] In the case of liposomes containing yeast PI as the phospholipid, the uptake of linoleic acid was 2.9 nmol/8×10^5 cells and the thymidine incorporation had decreased to 53% of control values. Although toxicity occurred at similar concentrations of fatty acids as were generated intracellularly it must be kept in mind that in the experiment in Table 2 there were also extracellular free fatty acids which could exert effects on the outer surface of the cells.

Data set [5] relates to lung small cell carcinoma cultures (NCI-H128). Nature of the data set: Toxicity to lung small cell carcinoma cultures, based on thymidine uptake, with inhibitors. More on the design: species or system human. The conditions noted are these: FIGS. 9c and 9d; for blocking of plant PI toxicity / competition: with plant PI. From the text:
FIGS. 9c and 9d show the effects of inhibitors of phospholipase A2 (quinacrine) or prostaglandin synthesis (eicosanotetraynoic acid) or leukotriene synthesis ([…]) on cytotoxicity induced by liposomes containing plant PI/cholesterol/([^14 C]linoleoyl)PI (2/1/0.01). The NCI-H128 cells are a small cell lung carcinoma cultured cell line
Several specific inhibitors were used with lung small cell carcinoma cultures. […] In humans, this type of lung cancer is fatal very soon after detection.

SMILES strings stand for the structures.

On to `CCCCC/C=C\C/C=C\C/C=C\C/C=C\CCC[14C](=O)O[C@H](COC(=O)CCCCCCCCCCCCCCCCC)COP(=O)(O)O[C@@H]1[C@H](O)[C@H](O)[C@@H](O)[C@H](O)[C@H]1O` [([^14 C]arachidonoyl)PI], for which the Liposomal uptake was 0.09 nMoles of phospholipid/1 × 10^5 cells with MRC-5; 0.49 nMoles of phospholipid/1 × 10^5 cells with N4TG1; 0.55 nMoles of phospholipid/1 × 10^5 cells in the data set with HT-144; 0.33 nMoles of phospholipid/1 × 10^5 cells with WI-38/SV-40; 0.39 nMoles of phospholipid/1 × 10^5 cells in the data set on SK-N-MC. In addition, the Phosphatidylcholine result in [1] is given as “Not Detected”. Besides, in [2], the cytotoxicity entry is on record as “considerable cytotoxicity”.
In the case of `CCCCCCCC/C=C\CCCCCCC[14C](=O)O[C@H](COC(=O)CCCCCCCCCCCCCCCCC)COP(=O)(O)O[C@@H]1[C@H](O)[C@H](O)[C@@H](O)[C@H](O)[C@H]1O` [([^14 C]oleoyl)PI, reference compound], the Liposomal uptake is listed as 0.13 nMoles of phospholipid/1 × 10^5 cells in the data set on MRC-5; 0.28 nMoles of phospholipid/1 × 10^5 cells in the data set with N4TG1; 0.28 nMoles of phospholipid/1 × 10^5 cells in the data set on HT-144; 0.21 nMoles of phospholipid/1 × 10^5 cells in the data set with WI-38/SV-40; 0.28 nMoles of phospholipid/1 × 10^5 cells in the data set on SK-N-MC. Also, the cytotoxicity result in data set [2] is “lacked cytotoxicity”.
As for `CCCCC/C=C\C/C=C\CCCCCCCC(=O)O` [Linoleic acid, linoleic acid], the “decrease in thymidine incorporation compared with controls” value in [3] (liposomes with animal PI, uptake 2.55 nmol/8×10^5 cells) was 63%. In addition, the thymidine incorporation in data set [3] (liposomes with yeast PI, uptake 2.9 nmol/8×10^5 cells) is 53 % of control values. The “uptake of linoleic acid” value was determined as 2.55 nmol/8 × 10^5 cells in data set [4] (50 μM, Animal Phosphatidylinositol liposomes); 1.8 nmol/8 × 10^5 cells in [4] (50 μM, Yeast Phosphatidylinositol liposomes); 3.03 nmol/8 × 10^5 cells in [4] (100 μM, Animal Phosphatidylinositol liposomes); 2.9 nmol/8 × 10^5 cells in data set [4] (100 μM, Yeast Phosphatidylinositol liposomes); 10.4 nmol/8 × 10^5 cells in data set [4] (200 μM, Animal Phosphatidylinositol liposomes); 14.8 nmol/8 × 10^5 cells in [4] (200 μM, Yeast Phosphatidylinositol liposomes).
As for `CCN(CC)CCCC(C)Nc1c2ccc(Cl)cc2nc2ccc(OC)cc12` (stereo not drawn) [Quinacrine, quinacrine, reference compound], the “effect of quinacrine on cytotoxicity of plant PI” value in data set [2] (in conjunction with plant PI, FIG. 9b) is “reversal of cytotoxicity”. Moreover, the “cytotoxicity of quinacrine alone” value in [2] (tumor or normal cells, FIG. 9a) was “somewhat cytotoxic”. In addition, in data set [5], the toxicity result was “extremely toxic” and the “blocking of plant PI toxicity / competition” value is given as “No competition was observed”.
Take `CCCCCC#CCC#CCC#CCC#CCCCC(=O)O` [eicosanotetraynoic acid]: the “blocking of plant PI toxicity / competition” value in data set [5] is “relatively little promise of blocking the toxicity of plant PI”.
Take `COc1ccc2c(c1)c(CC(=O)O)c(C)n2C(=O)c1ccc(Cl)cc1` [indomethecin, indomethacin]: the “blocking of plant PI toxicity / competition” value in data set [5] is “relatively little promise of blocking the toxicity of plant PI”.
